The results in this text go back to US11214803B2, “Modulators of YAP1 expression” (Ionis Pharmaceuticals, Inc., priority 2019, dated 2022).

Strand notation (5' to 3'): a small letter for the sugar, then the base; units joined by * are phosphorothioate-linked, units joined directly phosphodiester-linked; [ ] holds rarer units or linkages, { } end groups; capitals alone tell only the bases. e = 2'-O-(2-methoxyethyl) (MOE); k = constrained ethyl (cEt); [5mC] = 5-methylcytosine; d = 2'-deoxy (DNA)

The subject of the first series is Yap1 mRNA. The series is described as follows: Antisense inhibition of human Yap1 in SNU-449 cells by modified oligonucleotides, single dose (Example 5, RTS36584). The series is classed as cell-based. The settings on record: Table 39; SNU-449 cells, 10,000 cells per well, free uptake, 2,000 nM oligonucleotide, approx. 48 hours; RTS36584; normalized to RIBOGREEN; Yap1 mRNA relative to untreated control. Put shortly: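 Free uptake, 2,000 nM, ~48 h, SNU-449 at 10,000 cells/well. Read-out: qRT-PCR (RTS36584), RIBOGREEN-normalised, expressed as % UTC. Asterisk = oligo hits amplicon region.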
Consider “1198409 (kA*dG*dT*dG*d[5mC]*dT*dT*dT*dG*dG*dA*kA*eG*kA*eT*k[5mC]; antisense) [Compound 1198409]”, for which the “YAP1 (% UTC)” value came out at 19 % UTC.

On to “1198410 (kA*dT*dA*dG*dT*dG*d[5mC]*dT*dT*dT*dG*kG*eA*kA*eG*kA; antisense) [Compound 1198410]”, for which the “YAP1 (% UTC)” value was found to be 48 % UTC.

As to “1198411 (kA*dG*dG*dA*dT*dG*d[5mC]*dA*dT*dG*dG*kT*eT*kT*eT*kT; antisense) [Compound 1198411]”, the “YAP1 (% UTC)” value was determined as 33 % UTC.

Take “1198412 (kT*dT*dA*dG*dG*dA*dT*dG*d[5mC]*dA*dT*kG*eG*kT*eT*kT; antisense) [Compound 1198412]”: the “YAP1 (% UTC)” value is given as 17 % UTC.

As to “1198413 (kT*dT*dT*dA*dG*dG*dA*dT*dG*d[5mC]*dA*kT*eG*kG*eT*kT) [Compound 1198413]”, the “YAP1 (% UTC)” value turned out to be 29 % UTC.

Regarding “1198414 (kA*dT*dT*dT*dA*dG*dG*dA*dT*dG*d[5mC]*kA*eT*kG*eG*kT) [Compound 1198414]”, the “YAP1 (% UTC)” value came to 20 % UTC.

Take “1198415 (kG*dA*dT*dT*dT*dA*dG*dG*dA*dT*dG*k[5mC]*eA*kT*eG*kG; antisense) [Compound 1198415]”: the “YAP1 (% UTC)” value came to 29 % UTC.

Take “1198416 (kA*dG*dA*dT*dT*dT*dA*dG*dG*dA*dT*kG*e[5mC]*kA*eT*kG; antisense) [Compound 1198416]”: the “YAP1 (% UTC)” value came to 29 % UTC.

“1198417 (k[5mC]*dA*dG*dA*dT*dT*dT*dA*dG*dG*dA*kT*eG*k[5mC]*eA*kT; antisense) [Compound 1198417]”: the “YAP1 (% UTC)” value is listed as 40 % UTC.

In the case of “1198418 (kT*d[5mC]*dA*dG*dA*dT*dT*dT*dA*dG*dG*kA*eT*kG*e[5mC]*kA; antisense) [Compound 1198418]”, the “YAP1 (% UTC)” value came to 67 % UTC.

Regarding “1198419 (kA*dT*dT*d[5mC]*dA*dG*dA*dT*dT*dT*dA*kG*eG*kA*eT*kG; antisense) [Compound 1198419]”, the “YAP1 (% UTC)” value came out at 78 % UTC.

Regarding “1198420 (kA*dT*dA*dT*dG*dG*dT*dT*dT*dT*dG*kT*eG*kT*eG*kT; antisense) [Compound 1198420]”, the “YAP1 (% UTC)” value was found to be 41 % UTC.

Regarding “1198421 (kT*dT*dA*dT*dA*dT*dG*dG*dT*dT*dT*kT*eG*kT*eG*kT; antisense) [Compound 1198421]”, the “YAP1 (% UTC)” value is given as 36 % UTC.

Turning to “1198422 (k[5mC]*dT*dT*dA*dT*dA*dT*dG*dG*dT*dT*kT*eT*kG*eT*kG; antisense) [Compound 1198422]”, the “YAP1 (% UTC)” value amounted to 18 % UTC.

With “1198423 (kT*d[5mC]*dT*dT*dA*dT*dA*dT*dG*dG*dT*kT*eT*kT*eG*kT) [Compound 1198423]”, the “YAP1 (% UTC)” value turned out to be 10 % UTC.

Regarding “1198424 (k[5mC]*dT*d[5mC]*dT*dT*dA*dT*dA*dT*dG*dG*kT*eT*kT*eT*kG; antisense) [Compound 1198424]”, the “YAP1 (% UTC)” value stood at 15 % UTC.

For the substance “1198429 (kA*dT*dT*dG*d[5mC]*dA*dA*dT*d[5mC]*dT*dG*kT*e[5mC]*kT*eG*kA; antisense) [Compound 1198429]”, the “YAP1 (% UTC)” value is given as 48 % UTC.

Consider “1198430 (kA*dT*dA*dT*dT*dG*d[5mC]*dA*dA*dT*d[5mC]*kT*eG*kT*e[5mC]*kT) [Compound 1198430]”, for which the “YAP1 (% UTC)” value amounted to 49 % UTC.

For “1198431 (kA*dA*dT*dA*dT*dT*dG*d[5mC]*dA*dA*dT*k[5mC]*eT*kG*eT*k[5mC]; antisense) [Compound 1198431]”, the “YAP1 (% UTC)” value was 35 % UTC.

“1198432 (kT*dA*dA*dT*dA*dT*dT*dG*d[5mC]*dA*dA*kT*e[5mC]*kT*eG*kT; antisense) [Compound 1198432]”: the “YAP1 (% UTC)” value is 70 % UTC.

“1198433 (kG*dT*dA*dA*dT*dA*dT*dT*dG*d[5mC]*dA*kA*eT*k[5mC]*eT*kG) [Compound 1198433]”: the “YAP1 (% UTC)” value is on record as 36 % UTC.

With “1198434 (kT*dG*dT*dA*dA*dT*dA*dT*dT*dG*d[5mC]*kA*eA*kT*e[5mC]*kT) [Compound 1198434]”, the “YAP1 (% UTC)” value was 78 % UTC.

Regarding “1198435 (kA*dT*dG*dT*dA*dA*dT*dA*dT*dT*dG*k[5mC]*eA*kA*eT*k[5mC]; antisense) [Compound 1198435]”, the “YAP1 (% UTC)” value came out at 57 % UTC.

Consider “1198436 (kT*dA*dT*dG*dT*dA*dA*dT*dA*dT*dT*kG*e[5mC]*kA*eA*kT; antisense) [Compound 1198436]”, for which the “YAP1 (% UTC)” value was determined as 69 % UTC.

As to “1198437 (kT*dT*dT*dA*dT*dG*dT*dA*dA*dT*dA*kT*eT*kG*e[5mC]*kA; antisense) [Compound 1198437]”, the “YAP1 (% UTC)” value turned out to be 63 % UTC.

Turning to “1198447 (kT*dA*dA*dG*dG*dT*dT*dT*d[5mC]*d[5mC]*d[5mC]*kA*eG*kA*eT*kT; antisense) [Compound 1198447]”, the “YAP1 (% UTC)” value is 63 % UTC.

For the substance “1198448 (kA*dG*dT*dA*dA*dG*dG*dT*dT*dT*d[5mC]*k[5mC]*e[5mC]*kA*eG*kA) [Compound 1198448]”, the “YAP1 (% UTC)” value amounted to 36 % UTC.

As for “1198449 (kA*dA*dG*dT*dA*dA*dG*dG*dT*dT*dT*k[5mC]*e[5mC]*k[5mC]*eA*kG; antisense) [Compound 1198449]”, the “YAP1 (% UTC)” value is listed as 37 % UTC.

For the substance “1198450 (kT*dA*dA*dG*dT*dA*dA*dG*dG*dT*dT*kT*e[5mC]*k[5mC]*e[5mC]*kA; antisense) [Compound 1198450]”, the “YAP1 (% UTC)” value was determined as 42 % UTC.

As for “1198451 (k[5mC]*dT*dA*dA*dG*dT*dA*dA*dG*dG*dT*kT*eT*k[5mC]*e[5mC]*k[5mC]; antisense) [Compound 1198451]”, the “YAP1 (% UTC)” value was found to be 48 % UTC.

On to “1198452 (kA*d[5mC]*dT*dA*dA*dG*dT*dA*dA*dG*dG*kT*eT*kT*e[5mC]*k[5mC]; antisense) [Compound 1198452]”, for which the “YAP1 (% UTC)” value is reported as 38 % UTC.

Turning to “1198453 (kG*dA*d[5mC]*dT*dA*dA*dG*dT*dA*dA*dG*kG*eT*kT*eT*k[5mC]; antisense) [Compound 1198453]”, the “YAP1 (% UTC)” value came out at 48 % UTC.

As for “1198454 (kA*dG*dA*d[5mC]*dT*dA*dA*dG*dT*dA*dA*kG*eG*kT*eT*kT; antisense) [Compound 1198454]”, the “YAP1 (% UTC)” value turned out to be 39 % UTC.

“1198455 (kT*dT*dA*dG*dA*d[5mC]*dT*dA*dA*dG*dT*kA*eA*kG*eG*kT) [Compound 1198455]”: the “YAP1 (% UTC)” value is given as 42 % UTC.

The series is the same for the next values; noted with them: Table 40 (separate experiment); SNU-449 cells, 10,000 cells per well, free uptake, 2,000 nM oligonucleotide, approx. 48 hours; RTS36584; normalized to RIBOGREEN; Yap1 mRNA relative to untreated control.
In the case of “1198425 (kA*d[5mC]*dT*d[5mC]*dT*dT*dA*dT*dA*dT*dG*kG*eT*kT*eT*kT; antisense) [Compound 1198425]”, the “YAP1 (% UTC)” value is given as 35 % UTC.

On to “1198426 (kA*dA*d[5mC]*dT*d[5mC]*dT*dT*dA*dT*dA*dT*kG*eG*kT*eT*kT; antisense) [Compound 1198426]”, for which the “YAP1 (% UTC)” value turned out to be 111 % UTC.

In the case of “1198427 (k[5mC]*dA*dA*d[5mC]*dT*d[5mC]*dT*dT*dA*dT*dA*kT*eG*kG*eT*kT; antisense) [Compound 1198427]”, the “YAP1 (% UTC)” value came out at 62 % UTC.

As for “1198428 (kG*dA*d[5mC]*dA*dA*d[5mC]*dT*d[5mC]*dT*dT*dA*kT*eA*kT*eG*kG; antisense) [Compound 1198428]”, the “YAP1 (% UTC)” value worked out at 62 % UTC.

“1198438 (kT*dG*dT*dA*dT*dG*dT*d[5mC]*dA*dG*dA*kA*eG*kA*eG*kT; antisense) [Compound 1198438]”: the “YAP1 (% UTC)” value was 7 % UTC.

As for “1198439 (kA*dG*dT*dG*dT*dA*dT*dG*dT*d[5mC]*dA*kG*eA*kA*eG*kA; antisense) [Compound 1198439]”, the “YAP1 (% UTC)” value came to 6 % UTC.

On to “1198440 (kA*dA*dG*dT*dG*dT*dA*dT*dG*dT*d[5mC]*kA*eG*kA*eA*kG) [Compound 1198440]”, for which the “YAP1 (% UTC)” value was 5 % UTC.

As for “1198441 (kA*dA*dA*dG*dT*dG*dT*dA*dT*dG*dT*k[5mC]*eA*kG*eA*kA; antisense) [Compound 1198441]”, the “YAP1 (% UTC)” value is 19 % UTC.

Turning to “1198442 (kT*dA*dA*dA*dG*dT*dG*dT*dA*dT*dG*kT*e[5mC]*kA*eG*kA; antisense) [Compound 1198442]”, the “YAP1 (% UTC)” value amounted to 44 % UTC.

Turning to “1198443 (kT*dT*dA*dA*dA*dG*dT*dG*dT*dA*dT*kG*eT*k[5mC]*eA*kG; antisense) [Compound 1198443]”, the “YAP1 (% UTC)” value was determined as 39 % UTC.

As for “1198444 (kT*dT*dT*dA*dA*dA*dG*dT*dG*dT*dA*kT*eG*kT*e[5mC]*kA; antisense) [Compound 1198444]”, the “YAP1 (% UTC)” value amounted to 70 % UTC.

As to “1198445 (k[5mC]*dT*dT*dT*dA*dA*dA*dG*dT*dG*dT*kA*eT*kG*eT*k[5mC]; antisense) [Compound 1198445]”, the “YAP1 (% UTC)” value is 61 % UTC.

For the substance “1198446 (kA*dA*d[5mC]*dT*dT*dT*dA*dA*dA*dG*dT*kG*eT*kA*eT*kG; antisense) [Compound 1198446]”, the “YAP1 (% UTC)” value is given as 83 % UTC.

Staying with this series, now noted: Table 43 experiment; SNU-449 cells, 10,000 cells per well, free uptake, 2,000 nM, approximately 48 hours; RTS36584; Yap1 mRNA normalized to RIBOGREEN, relative to untreated control cells.
In the case of “1198456 (kT*kG*dT*d[5mC]*dT*d[5mC]*dA*dT*dG*d[5mC]*d[5mC]*eT*kT*eA*kT*eA) [Compound 1198456]”, the “YAP1 (% UTC)” value turned out to be 21 % UTC.

On to “1198457 (kA*kT*dT*dG*dT*d[5mC]*dT*d[5mC]*dA*dT*dG*e[5mC]*k[5mC]*eT*kT*eA) [Compound 1198457]”, for which the “YAP1 (% UTC)” value amounted to 18 % UTC.

Take “1198458 (kA*kA*dT*dT*dG*dT*d[5mC]*dT*d[5mC]*dA*dT*eG*k[5mC]*e[5mC]*kT*eT) [Compound 1198458]”: the “YAP1 (% UTC)” value amounted to 30 % UTC.

As for “1198459 (antisense kA*kA*dA*dT*dT*dG*dT*d[5mC]*dT*d[5mC]*dA*eT*kG*e[5mC]*k[5mC]*eT) [Compound 1198459]”, the “YAP1 (% UTC)” value worked out at 28 % UTC.
